Laboratory results as given in patent US20250154147A1, “NOVEL AMINE-SUBSTITUTED PHTHALAZINES AND DERIVATIVES AS SOS1 INHIBITORS” (Jazz Pharmaceuticals Ireland Limited, priority 2022, published 2025).

Molecular target: SOS1 binding to KRAS-WT (Homo sapiens (Human), UniProt Q07889)
Experiment: SOS1/KRAS WT HTRF binding assay (FRET-based protein-protein interaction assay)
Settings: 40 nM GST-KRAS-WT, 40 nM His6-SOS1 exchange domain, at least two independent replicates; for IC50: read-out: SOS1/KRAS WT HTRF Binding assay pIC50 (converted)
Text: The capacity of compounds to inhibit SOS1 binding to KRAS-WT (wild-type) was quantified using a FRET-based protein-protein interaction assay. The assay is based on the transfer of energy between two fluorophores, a donor and an acceptor, when in close proximity. In this instance, the donor is a Europium-conjugated α-GST antibody that binds to GST-tagged KRAS-WT, and the acceptor is an XL665-conJugated α-His6 antibody that binds to His6-tagged SOS1. Binding of SOS1 to KRAS-WT results in an increased fluorescent signal at emission wavelength of 665 nm which can be detected on the EnVision plate reader. Compounds that inhibit binding will reduce the 665 nm signal emitted. Recombinant KRAS-WT protein (40 nM; Human KRAS, aal-188 recombinant protein with N-terminal GST-tag) and SOS1 protein (40 nM; Human SOS1 exchange domain, aa564-1049 with N-terminal 6His-tag) were mixed together in assay buffer (5 mM HEPES pH7.3, 150 mM NaCl, 10 mM EDTA, 5 mM MgCl2, 0.05% BSA, 0.0025% NP-40, 1 mM DTT and 100 mM KF) and incubated at room temperature with a dose response of compound in a 384-well low volume white plate and a final volume of 5 ul. After a 60 minute incubation, 5 ul of 4 nM anti-GST-Eu(K) (Cisbio, France) combined with 20 nM anti-6His-XL665 (Cisbio, France), diluted in assay buffer, was added to the plate. Following a further 4 h incubation at room temperature, time-resolved fluorescence was measured on the EnVision plate reader. DMSO (0.05%) and 10 μM reference compound were used to generate the Max and Min assay signals, respectively. Data was analyzed using a four-parameter logistic model to calculate IC50 values, with at least two independent replicates performed for each compound.

Sequence of SOS1 binding to KRAS-WT (Q07889 564-1049): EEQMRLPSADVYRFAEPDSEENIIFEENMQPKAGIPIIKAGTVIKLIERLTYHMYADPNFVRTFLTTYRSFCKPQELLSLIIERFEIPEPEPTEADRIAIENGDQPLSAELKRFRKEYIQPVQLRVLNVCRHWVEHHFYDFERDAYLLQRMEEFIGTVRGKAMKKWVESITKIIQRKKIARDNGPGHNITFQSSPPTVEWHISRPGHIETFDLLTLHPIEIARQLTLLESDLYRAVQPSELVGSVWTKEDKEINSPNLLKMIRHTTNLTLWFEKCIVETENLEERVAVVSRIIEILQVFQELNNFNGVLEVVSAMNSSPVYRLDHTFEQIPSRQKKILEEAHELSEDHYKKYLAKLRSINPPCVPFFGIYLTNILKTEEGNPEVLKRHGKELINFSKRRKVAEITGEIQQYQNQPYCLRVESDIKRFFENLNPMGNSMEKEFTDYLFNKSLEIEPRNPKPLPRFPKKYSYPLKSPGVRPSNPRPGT

Row | Structure (SMILES) | SOS1/KRAS WT HTRF Binding assay pIC50 | IC50
1 | Cc1nnc(N[C@H](C)c2cccc(C(F)(F)F)c2)c2cn(C(C)C)c(=O)cc12 [Compound 7, 6-isopropyl-1-methyl-4-[[(1R)-1-[3-(trifluoromethyl)phenyl]ethyl]amino] pyrido[3,4-d]pyridazin-7-one] | 7.02 | –
2 | Cc1nnc(N[C@H](C)c2cccc(C(F)(F)F)c2)c2cn(C3CCCC3)c(=O)cc12 [Compound 2, 6-cyclopentyl-1-methyl-4-[[(1R)-1-[3-(trifluoromethyl)phenyl]ethyl]amino] pyrido[3,4-d]pyridazin-7-one] | 7.11 | –
3 | Cc1nnc(N[C@H](C)c2cccc(C(F)(F)F)c2)c2cn(C3CC3)c(=O)cc12 [Compound 13, 6-cyclopropyl-1-methyl-4-[[(1R)-1-[3-(trifluoromethyl)phenyl]ethyl]amino] pyrido[3,4-d]pyridazin-7-one] | 7.20 | –
4 | Cc1nnc(N[C@H](C)c2cccc(C(F)(F)F)c2)c2cn(CC3CC3)c(=O)cc12 [Compound 4, 6-(cyclopropylmethyl)-1-methyl-4-[[(1R)-1-[3-(trifluoromethyl)phenyl]ethyl]amino] pyrido[3,4-d]pyridazin-7-one] | 6.52 | –
5 | Cc1nnc(N[C@H](C)c2cccc(C(F)(F)F)c2)c2cn(CC3(C)COC3)c(=O)cc12 [Compound 6, 1-methyl-6-[(3-methyloxetan-3-yl)methyl]-4-[[(1R)-1-[3-(trifluoromethyl)phenyl]ethyl]amino] pyrido[3,4-d]pyridazin-7-one] | 6.34 | –
6 | Cc1nnc(NC(C)c2cccc(C(F)(F)F)c2)c2cn(C3CCCC3)c(=O)cc12 (stereo not shown) [Compound 1, 6-cyclopentyl-1-methyl-4-[1-[3-(trifluoromethyl)phenyl]ethylamino] pyrido[3,4-d]pyridazin-7-one] | 6.72 | –
7 | Cc1nnc(NC(C)c2cccc(C(F)(F)F)c2)c2cc(O[C@H]3CCOC3)cnc12 (stereo partly drawn) [Compound 9, 8-methyl-3-[(3S)-tetrahydrofuran-3-yl]oxy-N-[1-[3-(trifluoromethyl)phenyl]ethyl]pyrido[2,3-d]pyridazin-5-amine] | 6.60 | –
8 | Cc1nnc(N[C@H](C)c2cccc(C(F)(F)F)c2)c2cc(C3=CCCC3)c(=O)n(C)c12 [Compound 12, 3-(cyclopenten-1-yl)-1,8-dimethyl-5-[[(1R)-1-[3-(trifluoromethyl)phenyl]ethyl]amino] pyrido[2,3-d]pyridazin-2-one] | 6.96 | –
9 | Cc1nnc(N[C@H](C)c2cccc(C(F)(F)F)c2)c2cn(C3CCOC3)c(=O)cc12 (mixture of isomers) [Compound 8, 1-methyl-4-[[rac-(1R)-1-[3-(trifluoromethyl)phenyl]ethyl]amino]-6-tetrahydrofuran-3-yl-pyrido[3,4-d]pyridazin-7-one] | – | 234 nM
10 | Cc1nnc(N[C@H](C)c2cccc(C(F)(F)F)c2)c2cn(CC3COC3)c(=O)cc12 [Compound 5, 1-methyl-6-(oxetan-3-ylmethyl)-4-[[(1R)-1-[3-(trifluoromethyl)phenyl]ethyl]amino] pyrido[3,4-d]pyridazin-7-one] | 6.52 | –
11 | Cc1nnc(N[C@H](C)c2cccc(C(F)F)c2)c2cc(C3=CCCC3)c(=O)n(C)c12 [Compound 11, 3-(cyclopenten-1-yl)-5-[[(1R)-1-[3-(difluoromethyl)phenyl]ethyl]amino]-1,8-dimethyl-pyrido[2,3-d]pyridazin-2-one] | – | 178 nM
12 | Cc1nnc(N[C@H](C)c2cccc(C(F)(F)F)c2)c2cc(O[C@H]3CCOC3)cnc12 [Compound 10, 8-methyl-3-[(3S)-tetrahydrofuran-3-yl]oxy-N-[(1R)-1-[3-(trifluoromethyl)phenyl]ethyl]pyrido[2,3-d]pyridazin-5-amine] | 6.76 | –
13 | CCn1cc2c(N[C@H](C)c3cccc(C(F)(F)F)c3)nnc(C)c2cc1=O [Compound 3, 6-ethyl-1-methyl-4-[[(1R)-1-[3-(trifluoromethyl)phenyl]ethyl]amino] pyrido[3,4-d]pyridazin-7-one] | 6.46 | –

More lines, now with the values ahead:

Row | SOS1/KRAS WT HTRF Binding assay pIC50 | IC50 | Structure (SMILES)
14 | – | 36.3 nM | CC(=O)N1CC=C(c2cc3c(N[C@H](C)c4cccc(C(F)(F)F)c4)nnc(C)c3n(C)c2=O)CC1 (racemic) [Compound 19, 3-(1-acetyl-3,6-dihydro-2H-pyridin-4-yl)-1,8-dimethyl-5-[[rac-(1R)-1-[3-(trifluoromethyl)phenyl]ethyl]amino] pyrido[2,3-d]pyridazin-2-one]
15 | – | 35.5 nM | CC(=O)N1CCC(c2cc3c(N[C@H](C)c4cccc(C(F)F)c4)nnc(C)c3n(C)c2=O)CC1 [Compound 22, 3-(1-acetyl-4-piperidyl)-5-[[(1R)-1-[3-(difluoromethyl)phenyl]ethyl]amino]-1,8-dimethyl-pyrido[2,3-d]pyridazin-2-one]
16 | – | 93.3 nM | Cc1nnc(N[C@H](C)c2cccc(C(F)F)c2)c2cc(C3CCOCC3)c(=O)n(C)c12 (racemic) [Compound 20, 1,8-dimethyl-5-[[rac-(1R)-1-[3-(difluoromethyl)phenyl]ethyl]amino]-3-tetrahydropyran-4-yl-pyrido[2,3-d]pyridazin-2-one]
17 | 7.30 | – | Cc1nnc(N[C@H](C)c2cccc(C(F)(F)F)c2)c2cc(C3=CCCNC3)c(=O)n(C)c12 [Compound 16, 1,8-dimethyl-3-(1,2,3,6-tetrahydropyridin-5-yl)-5-[[(1R)-1-[3-(trifluoromethyl)phenyl]ethyl]amino] pyrido[2,3-d]pyridazin-2-one]
18 | 7.24 | – | Cc1nnc(N[C@H](C)c2cccc(C(F)(F)F)c2F)c2cc(C3CCNCC3)c(=O)n(C)c12 [Compound 23, 5-[[(1R)-1-[2-fluoro-3-(trifluoromethyl)phenyl]ethyl]amino]-1,8-dimethyl-3-(4-piperidyl)pyrido[2,3-d]pyridazin-2-one]
19 | 7.36 | – | CC(=O)N1CCCC(c2cc3c(N[C@H](C)c4cccc(C(F)(F)F)c4)nnc(C)c3n(C)c2=O)C1 (stereo partly drawn) [Compound 18, 3-(1-acetyl-3-piperidyl)-1,8-dimethyl-5-[[(1R)-1-[3-(trifluoromethyl)phenyl]ethyl]amino] pyrido[2,3-d]pyridazin-2-one]
20 | 6.17 | – | Cc1nnc(NC(C)c2cccc(C(F)(F)F)c2)c2nc(O[C@H]3CCOC3)ccc12 (stereo partly drawn) [Compound 15, 5-methyl-2-[(3S)-tetrahydrofuran-3-yl]oxy-N-[1-[3-(trifluoromethyl)phenyl]ethyl]pyrido[2,3-d]pyridazin-8-amine]
21 | – | 53.7 nM | Cc1nnc(N[C@H](C)c2cccc(C(F)F)c2)c2cc(C3CCN(C)CC3)c(=O)n(C)c12 (racemic) [Compound 21, 1,8-dimethyl-3-(1-methyl-4-piperidyl)-5-[[rac-(1R)-1-[3-(difluoromethyl)phenyl]ethyl]amino] pyrido[2,3-d]pyridazin-2-one]
22 | – | 58.9 nM | Cc1nnc(N[C@H](C)c2cccc(C(F)(F)F)c2)c2cn(C3(C)CC3)c(=O)cc12 (racemic) [Compound 14, 1-methyl-6-(1-methylcyclopropyl)-4-[[rac-(1R)-1-[3-(trifluoromethyl)phenyl]ethyl]amino] pyrido[3,4-d]pyridazin-7-one]
